Source: patent US5670482A, “Neuropeptide Y antagonists” (Glaxo Wellcome Inc., priority 1992, dated 1997)
pIC50: −log10 of the molar value. Positions of bridges follow the written chain, without caps; N, C: chain ends. Non-standard residues stand in square brackets, D forms with d. Residues, ends and D or L forms follow the SMILES beside them. Chains are numbered I, II in the order given. *: point of attachment. Desaminotyrosyl = O=C(CCc1ccc(O)cc1)*; Orn = NCCC[C@H](N)C(=O)O; Dap = NC[C@H](N)C(=O)O; X1 = Clc1cccc(Cl)c1C*; Aib = CC(C)(N)C(=O)O

How the values were obtained:
[1] = molecular target: NPY receptors in rat brain membranes; test: Radioreceptor binding assay (3H-NPY, rat brain membranes); details: 37° C.
Protocol: Rat brain membranes were incubated with ^3 H-NPY up to equilibrium at 37° C. in the presence of several peptides at different concentrations and in a final volume of 1 ml. Non-specific binding was determined by adding 100 nM of cold NPY. At the end of the incubation period the samples were either filtered (GF/C filter), or 0.5 ml of cold incubation buffer was added and the tubes centrifuged at 15,000 g for 10 min. The supernatant was discarded and the pellet or filters resuspended and counted by liquid scintillation. Results were processed using a computer programme that calculated IC50, Kd, Bmax and Hill coefficient by linear regression. IC50 results where available are shown in column (a) of the Table.

[2] = system: Human erythroleukemic (HEL) cells; test: Intracellular calcium measurements in HEL cells (Fura-2); assay type: cell-based; details: for HEL CELLS % Fluor (c): agonistic activity: fluorescence induced by 100 nM of the peptide; for pIC50: antagonism of 5 nM NPY-induced calcium signal, read-out: HEL CELLS IC50 (d); for HEL CELLS % INHIB (b): inhibition of increase in HEL cell intracellular calcium induced by 5 nM NPY, 100 nM compound
Protocol: Human erythroleukemic (HEL) cells were loaded with Fura-2 (1 μM for 1 h), washed and then placed in a cuvette (5×10^5 cells in 2.5 ml) and excited simultaneously at 340 and 380 nm in a SLM spectrofluorometer. Fluorescence changes after the addition of NPY and/or peptide analogs were followed by recording emission at 510 nm. Calcium concentrations can be determined through a computer programme by using the ratio of fluorescence 340/380 nm. The agonistic activity of peptide analogs was tested by recording the fluorescence induced upon stimulation of the cells with 100 nM of the peptide and the antagonistic activity by observing the decrease in fluorescence induced by 5 nM NPY in the presence of the analog The results where available are indicated in column (c) of the Table.
The inhibition of the increase in the HEL cell intracellular calcium (induced by 5 nM NPY) achieved by 100 nM concentrations of each compound is shown in column (b) of the Table.

Row | SMILES | pIC50 [1] | pIC50 [2] | HEL CELLS % Fluor (c) [2] [%] | HEL CELLS % INHIB (b) [2] [%]
1 | CC[C@H](C)[C@H](N)C(=O)N[C@@H](CC(N)=O)C(=O)N1CCC[C@H]1C(=O)N[C@H](C(=O)N[C@@H](Cc1ccc(O)cc1)C(=O)N[C@@H](CCCNC(=N)N)C(=O)N[C@@H](CC(C)C)C(=O)N[C@@H](CCCNC(=N)N)C(=O)N[C@@H](Cc1ccc(O)cc1)C(N)=O)[C@@H](C)OC [Example 2, IleAsnPro(O-MethylThr)TyrArgLeuArgTyr-NH2] (H-INPT(Me)YRLRY-NH2) | 6.55 | 8.30 | 0 | 100
2 | CC[C@H](C)[C@H](N)C(=O)N[C@@H](CC(N)=O)C(=O)N1CCC[C@H]1C(=O)NC(C)(C)C(=O)N[C@@H](Cc1ccc(OCc2c(Cl)cccc2Cl)cc1)C(=O)N[C@@H](CCCNC(=N)N)C(=O)N[C@@H](CC(C)C)C(=O)N[C@@H](CCCNC(=N)N)C(=O)N[C@@H](Cc1ccc(O)cc1)C(N)=O [Example 3, IleAsnProAib[O-(2,6-Dichlorobenzyl)Tyr]ArgLeuArgTyr-NH2] (H-INP[Aib]Y(X1)RLRY-NH2; N-terminus assumed) | 6.46 | 8.10 | 0 | 100
3 | CC[C@H](C)[C@H](N)C(=O)N[C@@H](CSSC[C@H](NC(=O)[C@@H](N)[C@@H](C)CC)C(=O)N1CCC[C@H]1C(=O)N[C@H](C(=O)N[C@@H](Cc1ccc(O)cc1)C(=O)N[C@@H](CCCNC(=N)N)C(=O)N[C@@H](CC(C)C)C(=O)N[C@@H](CCCNC(=N)N)C(=O)N[C@@H](Cc1ccc(O)cc1)C(N)=O)[C@@H](C)CC)C(=O)N1CCC[C@H]1C(=O)N[C@H](C(=O)N[C@@H](Cc1ccc(O)cc1)C(=O)N[C@@H](CCCNC(=N)N)C(=O)N[C@@H](CC(C)C)C(=O)N[C@@H](CCCNC(=N)N)C(=O)N[C@@H](Cc1ccc(O)cc1)C(N)=O)[C@@H](C)CC [Example 13, (IleCysProIleTyrArgLeuArgTyr-NH2)2] (I: H-ICPIYRLRY-NH2 / II: H-ICPIYRLRY-NH2; disulfide I:2-II:2 (inferred); N-terminus assumed) | 7.46 | 9.12 | 0 | 100
4 | CC[C@H](C)[C@H](NC(=O)CCc1ccc(O)cc1)C(=O)N[C@@H](CC(N)=O)C(=O)N[C@@H](CC(C)C)C(=O)N[C@H](C(=O)N[C@@H](Cc1ccc(O)cc1)C(=O)N[C@@H](CCCNC(=N)N)C(=O)N[C@@H](CC(C)C)C(=O)N[C@@H](CCCNC(=N)N)C(=O)N[C@@H](Cc1ccc(O)cc1)C(N)=O)[C@@H](C)CC [Example 18, desNH2 TyrIleAsnLeuIleTyrArgLeuArgTyr-NH2] (Desaminotyrosyl-INLIYRLRY-NH2) | 7.77 |  | 28 | 62

Continued, in another order:

Row | pIC50 [1] | pIC50 [2] | SMILES | HEL CELLS % Fluor (c) [2] [%] | HEL CELLS % INHIB (b) [2] [%]
5 | 7.82 | 8.82 | CC[C@H](C)[C@H](N)C(=O)N[C@H]1CC(=O)NC[C@@H](C(=O)N[C@@H](Cc2ccc(O)cc2)C(=O)N[C@@H](CCCNC(=N)N)C(=O)N[C@@H](CC(C)C)C(=O)N[C@@H](CCCNC(=N)N)C(=O)N[C@@H](Cc2ccc(O)cc2)C(N)=O)NC(=O)[C@@H]2CCCN2C(=O)[C@@H](NC(=O)[C@@H](N)[C@@H](C)CC)CC(=O)NC[C@@H](C(=O)N[C@@H](Cc2ccc(O)cc2)C(=O)N[C@@H](CCCNC(=N)N)C(=O)N[C@@H](CC(C)C)C(=O)N[C@@H](CCCNC(=N)N)C(=O)N[C@@H](Cc2ccc(O)cc2)C(N)=O)NC(=O)[C@@H]2CCCN2C1=O [Example 7, IleAspProDprTyrArgLeuArgTyr-NH2,Cyclic(2,4'),(2',4)-Diamide] (I: H-IDP[Dap]YRLRY-NH2 / II: H-IDP[Dap]YRLRY-NH2; amide I:2-II:4, I:4-II:2; N-terminus assumed) | 0 | 100
6 | 8.12 | 8.60 | CC[C@H](C)[C@H](N)C(=O)N[C@H]1CNC(=O)C[C@@H](C(=O)N[C@@H](Cc2ccc(O)cc2)C(=O)N[C@@H](CCCNC(=N)N)C(=O)N[C@@H](CC(C)C)C(=O)N[C@@H](CCCNC(=N)N)C(=O)N[C@@H](Cc2ccc(O)cc2)C(N)=O)NC(=O)[C@@H]2CCCN2C(=O)[C@@H](NC(=O)[C@@H](N)[C@@H](C)CC)CNC(=O)C[C@@H](C(=O)N[C@@H](Cc2ccc(O)cc2)C(=O)N[C@@H](CCCNC(=N)N)C(=O)N[C@@H](CC(C)C)C(=O)N[C@@H](CCCNC(=N)N)C(=O)N[C@@H](Cc2ccc(O)cc2)C(N)=O)NC(=O)[C@@H]2CCCN2C1=O [Example 8, IleDprProAspTyrArgLeuArgTyr-NH2,Cyclic(2,4'),(2',4)-Diamide] (I: H-I[Dap]PDYRLRY-NH2 / II: H-I[Dap]PDYRLRY-NH2; amide I:2-II:4, I:4-II:2; N-terminus assumed) | 0 | 100
7 | 8.72 | 8.30 | CC[C@H](C)[C@H](N)C(=O)N[C@@H](CC(N)=O)C(=O)N1CCC[C@H]1C(=O)NC(CCCC(NC(=O)[C@@H]1CCCN1C(=O)[C@H](CC(N)=O)NC(=O)[C@@H](N)[C@@H](C)CC)C(=O)N[C@@H](Cc1ccc(O)cc1)C(=O)N[C@@H](CCCNC(=N)N)C(=O)N[C@@H](CC(C)C)C(=O)N[C@@H](CCCNC(=N)N)C(=O)N[C@@H](Cc1ccc(O)cc1)C(N)=O)C(=O)N[C@@H](Cc1ccc(O)cc1)C(=O)N[C@@H](CCCNC(=N)N)C(=O)N[C@@H](CC(C)C)C(=O)N[C@@H](CCCNC(=N)N)C(=O)N[C@@H](Cc1ccc(O)cc1)C(N)=O (some centres unmarked) [Example 14, IleAsnPro TyrArgLeuArgTyr-NH2 (SEQ.ID.No:17) Pim IleAsnPro TyrArgLeuArgTyr-NH2 (SEQ.ID.No:17)] | 0 | 100
8 | > 10.00 | 9.60 | CC[C@H](C)[C@H](N)C(=O)N[C@H]1CCC(=O)NCCC[C@@H](C(=O)N[C@@H](Cc2ccc(O)cc2)C(=O)N[C@@H](CCCNC(=N)N)C(=O)N[C@@H](CC(C)C)C(=O)N[C@@H](CCCNC(=N)N)C(=O)N[C@@H](Cc2ccc(O)cc2)C(N)=O)NC(=O)[C@@H]2CCCN2C(=O)[C@@H](NC(=O)[C@@H](N)[C@@H](C)CC)CCC(=O)NCCC[C@@H](C(=O)N[C@@H](Cc2ccc(O)cc2)C(=O)N[C@@H](CCCNC(=N)N)C(=O)N[C@@H](CC(C)C)C(=O)N[C@@H](CCCNC(=N)N)C(=O)N[C@@H](Cc2ccc(O)cc2)C(N)=O)NC(=O)[C@@H]2CCCN2C1=O [Example 15, IleGluProOrnTyrArgLeuArgTyr-NH2,Cyclic(2,4'),(2',4)-Diamide] (I: H-IEP[Orn]YRLRY-NH2 / II: H-IEP[Orn]YRLRY-NH2; amide I:2-II:4, I:4-II:2; N-terminus assumed) | 0 | 100
9 | > 10.00 | 9.60 | CC[C@H](C)[C@H](N)C(=O)N[C@H]1CC(=O)NCCC[C@@H](C(=O)N[C@@H](Cc2ccc(O)cc2)C(=O)N[C@@H](CCCNC(=N)N)C(=O)N[C@@H](CC(C)C)C(=O)N[C@@H](CCCNC(=N)N)C(=O)N[C@@H](Cc2ccc(O)cc2)C(N)=O)NC(=O)[C@@H]2CCCN2C(=O)[C@@H](NC(=O)[C@@H](N)[C@@H](C)CC)CC(=O)NCCC[C@@H](C(=O)N[C@@H](Cc2ccc(O)cc2)C(=O)N[C@@H](CCCNC(=N)N)C(=O)N[C@@H](CC(C)C)C(=O)N[C@@H](CCCNC(=N)N)C(=O)N[C@@H](Cc2ccc(O)cc2)C(N)=O)NC(=O)[C@@H]2CCCN2C1=O [Example 16, IleAspProOrnTyrArgLeuArgTyrNH2,Cyclic(2,4'),(2',4)-Diamide] (I: H-IDP[Orn]YRLRY-NH2 / II: H-IDP[Orn]YRLRY-NH2; amide I:2-II:4, I:4-II:2; N-terminus assumed) | 0 | 100
